Assay in all cases: DTP human tumour cell line panel, 48 h
Test [1] deals with 786-0 renal.
Test [2] concerns ACHN renal.
For test [3], the system named is COLO 205 colon.
Test [4] has as its system EKVX NSCLC.
The subject of test [5] is HCT-116 colon.
The test system of test [6] is HCT-15 colon.
Test [7] deals with HOP-62 NSCLC.
The test system of test [8] is KM12 colon.
Test [9] concerns MALME-3M melanoma.
The test system of test [10] is SN12C renal.

Several values for one entry are separate records, joined by “and”; a condition that tells them apart may be missing. Equal values may be shown once.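 Where inhibition never reached the appropriate level, the endpoint shown equals the highest concentration tested. Otherwise, values were interpolated linearly from a five-concentration, 48-hour dose response in 96-well plates. GI50 = concentration required for 50% inhibition of growth. TGI: concentration producing complete growth inhibition.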

`CC[C@@]1(O)C(=O)OCc2c1cc1n(c2=O)Cc2c-1nc1cc3c(cc1c2C)OCO3`: the GI50 in test [1] was below 0.0001 µM; in test [2] it was below 0.0001 µM; in [3], 0.102 µM; in test [5], 0.0181 µM; in test [6], 0.00936 µM; in [7], below 0.0001 µM. Besides, the values for the GI50 in test [8], in test [9] and in test [10] were 0.0241 µM, 0.000457 µM and below 0.0001 µM, respectively. The TGI in test [1] is 8.15 µM; in test [2], 0.0601 µM; in test [3], above 100 µM; in test [4], 0.818 µM; in test [5] it was 15.1 µM; in test [6], above 100 µM. For the same compound, the TGI was 0.314 µM and 0.238 µM in test [7]; above 100 µM in test [8]; 3.92 µM in test [9]; 27 µM in [10].

With `CCc1cc2c(cc1N1CCC(N3CCOCC3)CC1)C(C)(C)c1[nH]c3cc(C#N)ccc3c1C2=O`, the GI50 in test [1] was 1.87 µM and 1.71 µM; in test [2], 1.92 µM and 1.54 µM and 1.41 µM; in [3], 1.95 µM and 2.21 µM and 1.64 µM; in test [4], 1.56 µM and 2.04 µM; in [5], 1.76 µM and 1.79 µM and 3.1 µM; in [6], 2.02 µM and 1.35 µM and 1.14 µM. Further, the GI50 in test [7] is 0.849 µM and 1.4 µM and 1.43 µM; in [8] it was 0.336 µM and 0.345 µM and 0.347 µM; in test [9], 1.41 µM and 1.4 µM and 2.3 µM; in test [10], 2.23 µM and 1.44 µM and 1.55 µM. Further, the TGI was 4.01 µM and 3.76 µM and 3.46 µM in test [1]; 4.54 µM and 3.35 µM and 4.67 µM in test [2]; 6.37 µM and 7.16 µM and 8.45 µM in test [3]; 6.85 µM and > 10 µM in test [4]; 3.85 µM and 3.6 µM and > 10 µM in test [5]; > 33.4 µM and 10.6 µM and 3.75 µM in [6]. Besides, the TGI is 2.61 µM and 3.03 µM and 3.42 µM in test [7]; 5.36 µM and 3.41 µM and > 10 µM in [8]; 5.62 µM and 5.27 µM and > 10 µM in test [9]; 8.69 µM and 6.23 µM and 4.5 µM in [10].

Regarding `CCOC(=O)C(C)(C)C(O)C(C)C` (stereo not drawn), the TGI in test [1], in [2], in test [3], in test [4], in [5] and in test [6] was above 100 µM in each case. The TGI in test [7], in test [8], in test [9] and in [10] was above 100 µM each time.

On to `Clc1cc2n[se]nc2cc1Cl`, for which the TGI in test [1], in test [2], in test [4], in test [5], in test [6] and in test [7] was above 100 µM in each case. Further, the TGI in test [8], in test [9] and in test [10] was above 100 µM throughout.

For `CC[C@@H]1C[C@H]2CC3c4[nH]c5ccc(O)cc5c4CCN(C2)C31`, the total growth inhibition concentration (TGI) in test [1], in test [2], in test [3], in test [4], in test [5] and in test [6] was above 100 µM each time. The TGI in test [7], in test [8], in test [9] and in [10] was above 100 µM in each case.

For `COc1cc(O)c2c(c1)C(=O)c1cc3c(c(O)c1C2=O)C(OC1OC(C)C(O)C(O)C1OC)C(OC)C(C)(O)C3=O` (stereo not drawn), the GI50 is 2.42 µM in test [1]; 2.4 µM in [2]; 1.31 µM in test [3]; 2.74 µM in test [4]; 1.63 µM and 0.665 µM in test [5]; 2.65 µM in [6]. Besides, the GI50 in [7] is 2.92 µM; in test [8] it was 3.11 µM and 2.33 µM. Further, the TGI in [1] was 40.5 µM; in test [2] it was 12.4 µM; in [3] it was 5.2 µM and 3.25 µM; in test [4] it was 7.21 µM and 5.39 µM; in test [5], 6.56 µM and 5.88 µM; in [6] it was 12.2 µM and 7.35 µM. In addition, the TGI in test [7] is 26.1 µM and 9.56 µM; in [8] it was 17.9 µM and 7.92 µM; in test [9], 2.54 µM and 2.65 µM; in test [10], 7.18 µM and 7.44 µM.

As to `Fc1cccc2c1cc1ccc3cccc4ccc2c1c34`, the TGI in [1], in test [2], in [3], in test [4], in [5] and in [7] was above 100 µM throughout. Further, the TGI in test [8], in test [9] and in test [10] was above 100 µM in each case.

On to `c1ccc2c(c1)[nH]c1c2nc2ncccn21`, for which the TGI in [1], in test [2], in [4], in test [5], in [7] and in test [8] was above 100 µM each time. The TGI in [9] and in [10] was above 100 µM in each case.

`O=C(NCC(O)CNC(=O)C(F)(F)F)C(F)(F)F`: the TGI in test [1], in [3], in test [4], in [5], in test [6] and in test [7] was above 100 µM in each case. Besides, the TGI in test [8], in [9] and in [10] was above 100 µM each time.

Turning to `O=C(NN=C1CCCCC1)c1[nH]c2ccc(F)cc2c1-c1ccccc1`, the GI50 is 44.2 µM in test [1]; 42.6 µM in [2]; 41.6 µM in test [3]; 63.2 µM in [4]; 15.6 µM in test [6]; 35.6 µM in test [7]. Further, the GI50 was 44.7 µM in [8], above 100 µM in test [9] and 28.6 µM in test [10]. Also, the TGI in test [1] was above 100 µM; in test [2], above 100 µM; in [3] it was above 100 µM; in test [4] it was above 100 µM; in test [6] it was 50.9 µM; in test [7], above 100 µM. The TGI in [8] was above 100 µM; in [9] it was above 100 µM; in [10], 84.8 µM.

As for `Cc1ccc(-c2nc(N3CCCNCC3)c3oc(-c4ccccc4)nc3n2)cc1`, the GI50 in test [1] was 1.43 µM; in [2], 1.79 µM; in test [3], 1.89 µM; in test [4] it was 1.81 µM; in [6], 1.4 µM; in test [7] it was 1.84 µM. The GI50 in test [8] was 1.89 µM; in test [9], 1.93 µM; in [10], 1.69 µM. The TGI in test [1] was 2.81 µM; in test [2] it was 3.22 µM; in test [3], 3.5 µM; in test [4], 3.33 µM; in test [6], 2.77 µM; in [7], 3.36 µM. Besides, the figures for the TGI in [8], in test [9] and in [10] were 3.45 µM, 3.48 µM and 3.21 µM, respectively.

The values above are taken from PubChem BioAssay (NCI).
